Legend:
Settings in all cases: exposure time: 72 h
[1] = tested on: T98
Experimental: (§1)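 Glioma cell lines and primary cultures were treated with single drugs in a nine-step threefold dilution series, about 72 h. Viability was read by CellTiter-Glo and normalised to untreated controls. Absolute IC50 was fitted in GraphPad Prism; values beyond the tested dose range are censored at the block's top or lowest dose.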

[2] = tested on: SF539
Experimental: as §1

[3] = tested on: SF268
Experimental: as §1

[4] = tested on: KNS42
Experimental: as §1

[5] = tested on: CAS-1
Experimental: as §1

[6] = tested on: U87
Experimental: as §1

[7] = tested on: U251
Experimental: as §1

[8] = tested on: U118
Experimental: as §1

[9] = tested on: SNB75
Experimental: as §1

[10] = tested on: AM38
Experimental: as §1

[11] = tested on: SF539; test: Loewe synergy score (Combenefit); higher = more synergy; extreme values may be limits of the assay
Summary of the method: (§2)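 Each drug's dilution series was topped at its own IC50. Pairs were combined on glioma cell lines as 6 × 6 twofold-dilution matrices in 96-well plates, dosed 24 h after plating, with a sixfold untreated control, and read three days later at least in triplicate. CellTiter-Glo viability, given as percent of DMSO controls, was normalised, and Combenefit then yielded Loewe, Bliss and highest single agent synergy scores.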

[12] = tested on: KNS-42; test: as above
Summary of the method: as §2

[13] = tested on: SF268; test: as above
Summary of the method: as §2

[14] = tested on: U87; test: as above
Summary of the method: as §2

[15] = tested on: AM-38; test: as above
Summary of the method: as §2

[16] = tested on: U251; test: as above
Summary of the method: as §2

[17] = tested on: SNB75; test: as above
Summary of the method: as §2

[18] = tested on: U118; test: as above
Summary of the method: as §2

[19] = tested on: T98G; test: as above
Summary of the method: as §2

[20] = tested on: SF539; test: HSA synergy score (Combenefit); higher = more synergy
Summary of the method: as §2

[21] = tested on: KNS-42; test: as above
Summary of the method: as §2

[22] = tested on: SF268; test: as above
Summary of the method: as §2

[23] = tested on: U87; test: as above
Summary of the method: as §2

[24] = tested on: AM-38; test: as above
Summary of the method: as §2

[25] = tested on: U251; test: as above
Summary of the method: as §2

[26] = tested on: SNB75; test: as above
Summary of the method: as §2

[27] = tested on: U118; test: as above
Summary of the method: as §2

[28] = tested on: T98G; test: as above
Summary of the method: as §2

[29] = tested on: SF539; test: Bliss synergy score (Combenefit); higher = more synergy; extreme values may be limits of the assay
Summary of the method: as §2

[30] = tested on: KNS-42; test: as above
Summary of the method: as §2

[31] = tested on: SF268; test: as above
Summary of the method: as §2

[32] = tested on: U87; test: as above
Summary of the method: as §2

[33] = tested on: AM-38; test: as above
Summary of the method: as §2

[34] = tested on: U251; test: as above
Summary of the method: as §2

[35] = tested on: SNB75; test: as above
Summary of the method: as §2

[36] = tested on: U118; test: as above
Summary of the method: as §2

[37] = tested on: T98G; test: as above
Summary of the method: as §2

[38] = tested on: T98; test: Chou-Talalay combination index (dimensionless); higher = less synergy (more antagonism)
Summary of the method: (§3)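 Two drugs were combined in a 6 × 6 grid of twofold dilutions on glioma cells plated 24 h earlier in 96-well plates, with low-adhesion plates for primary cultures. Each dilution series was capped at the drug's single-drug IC50. After three days, CellTiter-Glo readings were taken at least in triplicate. The Chou–Talalay combination index was calculated by the median effect principle from single and combined viabilities, given as percent of DMSO controls.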

[39] = tested on: SF539; test: as above
Summary of the method: as §3

[40] = tested on: SF268; test: as above
Summary of the method: as §3

[41] = tested on: KNS42; test: as above
Summary of the method: as §3

[42] = tested on: U87; test: as above
Summary of the method: as §3

[43] = tested on: U251; test: as above
Summary of the method: as §3

[44] = tested on: SNB75; test: as above
Summary of the method: as §3

[45] = tested on: AM38; test: as above
Summary of the method: as §3

[46] = tested on: U118; test: as above
Summary of the method: as §3

In the case of C[C@@H](Oc1cc(-c2cnn(C3CCNCC3)c2)cnc1N)c1c(Cl)ccc(F)c1Cl [Crizotinib], the “IC50 (absolute, viability)” value [1] was 1.88 µM, the “IC50 (absolute, viability)” value [2] was < 0.0229 µM and the “IC50 (absolute, viability)” value [3] was 0.0296 µM. For the same compound, the “IC50 (absolute, viability)” value [4] was 25 µM, the “IC50 (absolute, viability)” value [5] was > 50 µM and the “IC50 (absolute, viability)” value [6] was 3.63 µM. The “IC50 (absolute, viability)” value [7] was 0.33 µM and the “IC50 (absolute, viability)” value [8] was < 0.0229 µM.

In the case of CCOc1nc(NC(=O)Cc2cc(OC)ccc2OC)cc(N)c1C#N [JNK inhibitor VIII], the “IC50 (absolute, viability)” value [1] was 6.36 µM, the “IC50 (absolute, viability)” value [2] was 7.09 µM and the “IC50 (absolute, viability)” value [3] was 21.1 µM. For the same compound, the “IC50 (absolute, viability)” value [4] was 36.5 µM, the “IC50 (absolute, viability)” value [5] was 20.2 µM and the “IC50 (absolute, viability)” value [6] was 12 µM. The “IC50 (absolute, viability)” value [7] was 48.7 µM, the “IC50 (absolute, viability)” value [9] was 8.38 µM and the “IC50 (absolute, viability)” value [10] was 15.8 µM. For the same compound, the “IC50 (absolute, viability)” value [8] was 28.8 µM.

With N#CC(c1ccnc(NCCc2cccnc2)n1)c1nc2ccccc2s1 (stereo not drawn) the “IC50 (absolute, viability)” value [1] was 7.19 µM, the “IC50 (absolute, viability)” value [2] was 3.71 µM and the “IC50 (absolute, viability)” value [3] was 7.05 µM. For the same compound, the “IC50 (absolute, viability)” value [4] was 27.3 µM, the “IC50 (absolute, viability)” value [6] was 24.5 µM and the “IC50 (absolute, viability)” value [7] was 11.3 µM. The “IC50 (absolute, viability)” value [9] was 13.1 µM, the “IC50 (absolute, viability)” value [10] was 10 µM and the “IC50 (absolute, viability)” value [8] was 20.1 µM.

For C#Cc1cccc(Nc2ncnc3cc(OCCOC)c(OCCOC)cc23)c1 [Erlotinib], the “IC50 (absolute, viability)” value [1] was 27.5 µM, the “IC50 (absolute, viability)” value [2] was 25 µM and the “IC50 (absolute, viability)” value [3] was 38.1 µM. The “IC50 (absolute, viability)” value [4] was 27.2 µM, the “IC50 (absolute, viability)” value [5] was > 50 µM and the “IC50 (absolute, viability)” value [6] was 11.6 µM. The “IC50 (absolute, viability)” value [9] was 15 µM, the “IC50 (absolute, viability)” value [10] was 27.8 µM and the “IC50 (absolute, viability)” value [8] was 35.5 µM.

With CO[C@H]1C[C@@H]2CC[C@@H](C)[C@@](O)(O2)C(=O)C(=O)N2CCCC[C@H]2C(=O)O[C@H]([C@H](C)C[C@@H]2CC[C@@H](O)[C@H](OC)C2)CC(=O)[C@H](C)/C=C(\C)[C@@H](O)[C@@H](OC)C(=O)[C@H](C)C[C@H](C)/C=C/C=C/C=C/1C [Rapamycin] the “IC50 (absolute, viability)” value [1] was < 0.00302 µM, the “IC50 (absolute, viability)” value [2] was < 0.00302 µM and the “IC50 (absolute, viability)” value [4] was > 6.6 µM. The “IC50 (absolute, viability)” value [9] was > 6.6 µM, the “IC50 (absolute, viability)” value [10] was < 0.00302 µM and the “IC50 (absolute, viability)” value [8] was > 6.6 µM.

CCC(=O)N1CCN(c2ccc(-n3c(=O)ccc4cnc5ccc(-c6cnc7ccccc7c6)cc5c43)cc2C(F)(F)F)CC1 [Torin1] + N#CC(c1ccnc(NCCc2cccnc2)n1)c1nc2ccccc2s1 [AS601245] showed a Loewe synergy score [11] of 2.66, a Loewe synergy score [12] of 0 and a Loewe synergy score [13] of 0.416. It also gave a Loewe synergy score [14] of 0, a Loewe synergy score [15] of 0 and a Loewe synergy score [16] of 0.0482. For the same compound, the Loewe synergy score [17] was 0, the Loewe synergy score [18] was 2.14 and the Loewe synergy score [19] was 0.121. For the same compound, the HSA synergy score [20] was 11.4, the HSA synergy score [21] was 1.23 and the HSA synergy score [22] was 3.85. The HSA synergy score [23] was 0, the HSA synergy score [24] was 0 and the HSA synergy score [25] was 2.53. The HSA synergy score [26] was 0.213, the HSA synergy score [27] was 2.19 and the HSA synergy score [28] was 0.235. The Bliss synergy score [29] was 4.4, the Bliss synergy score [30] was 0 and the Bliss synergy score [31] was 0.983. For the same compound, the Bliss synergy score [32] was 0, the Bliss synergy score [33] was 0 and the Bliss synergy score [34] was 0.142. It also gave a Bliss synergy score [35] of 0, a Bliss synergy score [36] of 0 and a Bliss synergy score [37] of 0. For the same compound, the Chou-Talalay combination index [38] was 0.962, the Chou-Talalay combination index [39] was 0.864 and the Chou-Talalay combination index [40] was 0.963. For the same compound, the Chou-Talalay combination index [41] was 1.02, the Chou-Talalay combination index [42] was 2.44 and the Chou-Talalay combination index [43] was 0.948. It also gave a Chou-Talalay combination index [44] of 1.11, a Chou-Talalay combination index [45] of 1.32 and a Chou-Talalay combination index [46] of 1.07.

Source: the supplement of paper PMC7287046
